Each structure is given as a SMILES string. Counter-ions that a name gives are not always drawn.

The target of the first assay is T1, mGluR5 receptor (Sus scrofa, UniProt I3LUI7).
T1 construct: 450 μg of protein from brain homogenate with 5 nM ^3[H]-MPEP; from tissue; host or cells: pig brain halves without medulla, cerebellum and pons
T1 sequence (I3LUI7 19-1212): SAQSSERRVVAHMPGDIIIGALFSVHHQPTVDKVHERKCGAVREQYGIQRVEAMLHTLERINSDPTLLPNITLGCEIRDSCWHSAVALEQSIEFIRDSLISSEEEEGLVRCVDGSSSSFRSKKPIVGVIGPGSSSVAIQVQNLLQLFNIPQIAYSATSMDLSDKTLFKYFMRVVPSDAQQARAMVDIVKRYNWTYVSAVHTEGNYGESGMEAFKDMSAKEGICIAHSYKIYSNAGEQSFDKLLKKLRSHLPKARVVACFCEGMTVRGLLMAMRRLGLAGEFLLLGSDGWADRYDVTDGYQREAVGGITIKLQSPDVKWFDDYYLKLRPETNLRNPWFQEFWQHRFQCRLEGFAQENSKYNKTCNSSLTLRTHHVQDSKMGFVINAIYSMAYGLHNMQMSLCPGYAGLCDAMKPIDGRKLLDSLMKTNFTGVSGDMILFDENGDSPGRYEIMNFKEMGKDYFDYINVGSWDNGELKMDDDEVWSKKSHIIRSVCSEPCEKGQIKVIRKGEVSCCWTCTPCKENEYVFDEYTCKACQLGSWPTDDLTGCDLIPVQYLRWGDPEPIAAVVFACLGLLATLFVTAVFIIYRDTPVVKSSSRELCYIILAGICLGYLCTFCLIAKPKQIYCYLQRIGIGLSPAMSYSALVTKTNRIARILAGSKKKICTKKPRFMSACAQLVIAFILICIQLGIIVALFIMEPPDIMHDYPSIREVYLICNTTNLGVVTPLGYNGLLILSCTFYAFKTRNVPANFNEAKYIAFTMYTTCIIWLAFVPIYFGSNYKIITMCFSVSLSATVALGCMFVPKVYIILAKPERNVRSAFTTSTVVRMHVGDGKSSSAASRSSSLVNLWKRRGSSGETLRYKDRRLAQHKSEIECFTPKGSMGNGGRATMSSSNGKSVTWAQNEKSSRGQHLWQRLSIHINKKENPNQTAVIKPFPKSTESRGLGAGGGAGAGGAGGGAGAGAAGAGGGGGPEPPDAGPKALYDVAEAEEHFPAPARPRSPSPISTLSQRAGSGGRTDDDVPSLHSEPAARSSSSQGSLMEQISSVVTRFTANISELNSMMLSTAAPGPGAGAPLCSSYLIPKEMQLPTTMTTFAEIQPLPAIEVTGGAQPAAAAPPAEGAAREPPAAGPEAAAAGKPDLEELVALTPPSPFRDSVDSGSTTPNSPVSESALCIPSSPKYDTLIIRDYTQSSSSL
The assay can be described thus: [3H]-MPEP mGluR5 receptor binding assay (pig brain homogenate). As to conditions: 5 nM [3H]-MPEP, read-out: IC50 mGluR5 Receptor (pig) [^3H]-MPEP Bond. An outline of the steps: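 Radioligand displacement of 5 nM [3H]-MPEP from pig brain homogenate (450 μg protein; medulla, cerebellum and pons removed) in 20 mM Hepes pH 8.0. Compounds were tested at 10 μM, incubated 60 min at room temperature, then filtered and counted by scintillation. Non-specific binding was defined with 10 μM MPEP.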
As to `CCCCN(Cc1cccc(-c2ccc3ncnc(NC4CC4)c3c2)c1)C(C)=O` [Example 218, N-butyl-N-[3-(4-cyclopropylamino-quinazolin-6-yl)-benzyl]-acetamide; hydrochloride], the IC50 (usually the concentration at which inhibition is half-maximal) was 2990 nM.

`O=C1CCC(c2ccccc2)C(=O)N1Cc1cccc(-c2ccc3ncnc(NC4CC4)c3c2)c1` (centres unmarked) [Example 220, 1-[3-(4-cyclopropylamino-quinazolin-6-yl)-benzyl]-3-phenyl-piperidine-2,6-dione; hydrochloride]: the IC50 came to 4250 nM. Take `CC(=O)N(C)Cc1cccc(-c2ccc3ncnc(NC4CC4)c3c2)c1` [Example 221, N-[3-(4-cyclopropylamino-quinazolin-6-yl)-benzyl]-N-methyl-acetamide]: the half-maximal inhibitory concentration (IC50) was determined as 5360 nM. For the compound `CS(=O)(=O)N(Cc1ccccc1)Cc1cccc(-c2ccc3ncnc(NC4CC4)c3c2)c1` [Example 222, N-benzyl-N-(3-(4-(cyclopropylamino)quinazolin-6-yl)benzyl)methane sulfonamide], the half-inhibitory concentration (IC50) was 4610 nM.

`O=S(=O)(CC(F)(F)F)N(Cc1cccc(-c2ccc3ncnc(NC4CC4)c3c2)c1)C1CC1` [Example 225, N-cyclopropyl-N-(3-(4-(cyclopropylamino)quinazolin-6-yl)benzyl)-2,2,2-trifluoroethane sulfonamide]: the IC50 was found to be 1480 nM. The same measure, in the same setting: then `O=S(=O)(c1ccc(C(F)(F)F)cc1)N(Cc1cccc(-c2ccc3ncnc(NC4CC4)c3c2)c1)C1CC1` [Example 226, N-cyclopropyl-N-(3-(4-(cyclopropylamino)quinazolin-6-yl)benzyl)-4-(trifluoromethyl)benzole sulfonamide], with 2640 nM.

`O=S(=O)(c1ccccc1)N(Cc1cccc(-c2ccc3ncnc(NC4CC4)c3c2)c1)C1CC1` [Example 227, N-cyclopropyl-N-(3-(4-(cyclopropylamino)quinazolin-6-yl)benzyl)benzole sulfonamide]: the half-inhibitory concentration (IC50) came out at 2570 nM. Consider `O=C1C2CCCCC2C(=O)N1Cc1cccc(-c2ccc3ncnc(NC4CC4)c3c2)c1` (centres unmarked) [Example 228, 2-[3-(4-cyclopropylamino-quinazolin-6-yl)-benzyl]-hexahydro-isoindole-1,3-dione; hydrochloride], for which the IC50 was 8700 nM. The same measure, in the same setting: the same measure for `O=C1CC(c2ccccc2)C(=O)N1Cc1cccc(-c2ccc3ncnc(NC4CC4)c3c2)c1` (centres unmarked) [Example 229, 1-[3-(4-cyclopropylamino-quinazolin-6-yl)-benzyl]-3-phenyl-pyrrolidine-2,5-dione; hydrochloride]: 3500 nM. Same read-out and setting: then `CC(c1cccc(-c2ccc3ncnc(NC4CC4)c3c2)c1)N(C1CC1)S(C)(=O)=O` (centres unmarked) [Example 231, N-cyclopropyl-N-(1-(3-(4-(cyclopropylamino)quinazolin-6-yl)phenyl)ethyl)methane sulfonamide], with 5720 nM.

With `CC(=O)N(Cc1ccc(-c2ccc3ncnc(NC4CC4)c3c2)o1)C1CC1` [Example 232, N-cyclopropyl-N-[5-(4-cyclopropylamino-quinazolin-6-yl)-furan-2-yl-methyl]-acetamide], the IC50 was determined as 4270 nM. Still for that read-out and setting: then `CC(c1cccc(-c2ccc3ncnc(NC4CC4)c3c2)c1)N(C(=O)c1ccccc1)C1CC1` (centres unmarked) [Example 233, N-cyclopropyl-N-{1-[3-(4-cyclopropylamino-quinazolin-6-yl)-phenyl]-ethyl}-benzamide], with 820 nM; and `CC(=O)N(C1CC1)C(C)c1cccc(-c2ccc3ncnc(NC4CC4)c3c2)c1` (centres unmarked) [Example 235, N-cyclopropyl-N-{1-[3-(4-cyclopropylamino-quinazolin-6-yl)-phenyl]-ethyl}-acetamide], with 7350 nM. The same measure, in the same setting: then `COC(=O)CC(=O)N(Cc1cccc(-c2ccc3ncnc(NC4CC4)c3c2)c1)C1CC1` [Example 237, N-cyclopropyl-N-[3-(4-cyclopropylamino-quinazolin-6-yl)-benzyl]-methyl malonate], with 570 nM; and `COC(=O)C(=O)N(Cc1cccc(-c2ccc3ncnc(NC4CC4)c3c2)c1)C1CC1` [Example 238, N-cyclopropyl-N-[3-(4-cyclopropylamino-quinazolin-6-yl)-benzyl]-methyl oxalate], with 500 nM.

As to `CC(=O)N(Cc1cc(C)cc(-c2ccc3ncnc(NC4CC4)c3c2)c1)C1CC1` [Example 239, N-cyclopropyl-N-[3-(4-cyclopropylamino-quinazolin-6-yl)-5-methyl-benzyl]-acetamide], the IC50 came out at 4120 nM. The same measure, in the same setting: then `O=C1C2CCCCC2C(=O)N1Cc1cccc(-c2ccc3ncnc(NC4CC4)c3c2)c1` (centres unmarked) [Example 242, 2-[3-(4-cyclopropylamino-quinazolin-6-yl)-benzyl]-hexahydro-isoindole-1,3-dione hydrochloride], with 3080 nM. As for `O=C(c1ccccc1)N(Cc1c(F)ccc(-c2ccc3ncnc(NC4CC4)c3c2)c1F)C1CC1` [Example 244, N-cyclopropyl-N-[3-(4-cyclopropylamino-quinazolin-6-yl)-2,6-difluoro-benzyl]-benzamide], the IC50 is 220 nM. As to `CS(=O)(=O)N(Cc1c(F)ccc(-c2ccc3ncnc(NC4CC4)c3c2)c1F)C1CC1` [Example 246, N-cyclopropyl-N-(3-(4-(cyclopropylamino)quinazolin-6-yl)-2,6-difluorobenzyl)methane sulfonamide], the concentration for half-maximal inhibition (IC50) is 350 nM.

Turning to `CC(C)NC(=O)N(Cc1cccc(-c2ccc3ncnc(NC4CC4)c3c2)c1)C1CC1` [Example 247, 1-cyclopropyl-1-[3-(4-cyclopropylamino-quinazolin-6-yl)-benzyl]-3-isopropyl-urea], the IC50 stood at 7340 nM.

`O=C(c1cccnc1)N(Cc1cccc(-c2ccc3ncnc(NC4CC4)c3c2)c1)C1CC1` [Example 248, N-cyclopropyl-N-[3-(4-cyclopropylamino-quinazolin-6-yl)-benzyl]-nicotinamide]: the IC50 amounted to 3150 nM. On the same count and under the same terms, the same measure for `CC(=O)N(Cc1c(F)ccc(-c2ccc3ncnc(NC4CC4)c3c2)c1F)C1CC1` [Example 249, N-cyclopropyl-N-[3-(4-cyclopropylamino-quinazolin-6-yl)-2,6-difluoro-benzyl]-acetamide]: 140 nM; for `COCC(=O)N(Cc1cccc(-c2ccc3ncnc(NC4CC4)c3c2)c1)C1CC1` [Example 252, N-cyclopropyl-N-[3-(4-cyclopropylamino-quinazolin-6-yl)-benzyl]-2-methoxy-acetamide]: 920 nM; for `O=C(c1ccno1)N(Cc1cccc(-c2ccc3ncnc(NC4CC4)c3c2)c1)C1CC1` [Example 253, isoxazole-5-carboxylic acid cyclopropyl-[3-(4-cyclopropylamino-quinazolin-6-yl)-benzyl]-amide]: 1310 nM. In the case of `O=C(c1c(F)c(F)c(F)c(F)c1F)N(Cc1cccc(-c2ccc3ncnc(NC4CC4)c3c2)c1)C1CC1` [Example 254, N-cyclopropyl-N-[3-(4-cyclopropylamino-quinazolin-6-yl)-benzyl]-2,3,4,5,6-pentafluoro-benzamide], the half-inhibitory concentration (IC50) was found to be 600 nM.

On to `O=C(C=Cc1ccccc1)N(Cc1cccc(-c2ccc3ncnc(NC4CC4)c3c2)c1)C1CC1` [Example 255, N-cyclopropyl-N-[3-(4-cyclopropylamino-quinazolin-6-yl)-benzyl]-3-phenyl-acrylamide], for which the concentration for half-maximal inhibition (IC50) is 1850 nM. Turning to `CCCCC(=O)N(Cc1cccc(-c2ccc3ncnc(NC4CC4)c3c2)c1)C1CC1` [Example 256, pentanoic acid cyclopropyl-[3-(4-cyclopropylamino-quinazolin-6-yl)-benzyl]-amide], the IC50 is 1470 nM. Still for that read-out and setting: then `O=C(c1ccncc1)N(Cc1cccc(-c2ccc3ncnc(NC4CC4)c3c2)c1)C1CC1` [Example 257, N-cyclopropyl-N-[3-(4-cyclopropylamino-quinazolin-6-yl)-benzyl]-isonicotinamide], with 740 nM.

Staying with this assay, now noted: 10 μM compound, 5 nM [3H]-MPEP.
As for `CN(Cc1cccc(-c2ccc3ncnc(NC4CC4)c3c2)c1)S(C)(=O)=O` [Example 223, N-(3-(4-(cyclopropylamino)quinazolin-6-yl)benzyl)-N-methyl methane sulfonamide], the “% Inhibition of mGluR5 Receptor (pig) [^3H]-MPEP Bond at 10 μM” value was 51%.

Still in this assay, the particulars now being: 10 μM compound, 5 nM [3H]-MPEP, read-out: % Inhibition of mGluR5 Receptor (pig) [^3H]-MPEP Bond at 10 μM.
Take `CC(=O)N(Cc1ccccc1)Cc1cccc(-c2ccc3ncnc(NC4CC4)c3c2)c1` [Example 219, N-benzyl-N-[3-(4-cyclopropylamino-quinazolin-6-yl)-benzyl]-acetamide; hydrochloride]: the inhibition – broadly, the drop in the measured response relative to a control, in per cent – at 10 µM turned out to be 45%. As to `CS(=O)(=O)N(Cc1cncc(-c2ccc3ncnc(NC4CC4)c3c2)c1)C1CC1` [Example 234, N-cyclopropyl-N-[5-(4-cyclopropylamino-quinazolin-6-yl)-pyridin-3-yl-methyl]-methane sulfonamide], the inhibition at 10 µM is 41%. On to `CC(=O)N(Cc1cncc(-c2ccc3ncnc(NC4CC4)c3c2)c1)C1CC1` [Example 240, N-cyclopropyl-N-[5-(4-cyclopropylamino-quinazolin-6-yl)-pyridin-3-yl-methyl]-acetamide], for which the inhibition at 10 µM amounted to 47%.

Take `O=C1c2ccccc2C(=O)N1Cc1cccc(-c2ccc3ncnc(NC4CC4)c3c2)c1` [Example 241, 2-[3-(4-cyclopropylamino-quinazolin-6-yl)-benzyl]-isoindole-1,3-dione; hydrochloride]: the inhibition at 10 µM turned out to be 33%. `O=C1CC2(CCCC2)CC(=O)N1Cc1cccc(-c2ccc3ncnc(NC4CC4)c3c2)c1` [Example 243, 8-[3-(4-cyclopropylamino-quinazolin-6-yl)-benzyl]-8-aza-spiro[4.5]decane-7,9-dione; hydrochloride]: the inhibition at 10 µM was 39%. `CS(=O)(=O)N(Cc1cc(-c2ccc3ncnc(NC4CC4)c3c2)ccc1F)C1CC1` [Example 251, N-cyclopropyl-N-(5-(4-(cyclopropylamino)quinazolin-6-yl)-2-fluorobenzyl)methane sulfonamide]: the inhibition at 10 µM was found to be 30%.

Source of the values: patent US20090069320A1, “Substituted 4-Amino-Quinazoline Compounds with Metabotropic Glutamate Receptor Regulating Activity and Uses Thereof” (Gruenenthal GmbH, priority 2006, published 2009).
